# Experimental data reported in patent US8193333B2, “Cancer therapy using Bcl-Xl-specific siNA” (Centre Regional de Lutte Contre le Cancer-Centre Francois …, priority 2006, dated 2012).
# Tested on: subcutaneous SKOV3 human ovarian carcinoma
# Experiment: Growth of subcutaneous SKOV3 tumours in nude mice
# Format: in vivo
# Settings: 25 μg/kg intraperitoneally once a week, FIG. 16
# Protocol: PEI/siRNA complexes were prepared in 5% glucose solution with a ratio of L-PEI nitrogen to siRNA phosphate of 5:1. Various amounts of siRNA (125, 625 or 2500 ng) and L-PEI were diluted separately, and PEI was then added to the siRNA. The solution was quickly homogenized and left for 15 min at room temperature. It was injected intraperitoneally in mice as a 0.5 ml 5% glucose solution.
# SKOV3 cells (2×10^7/500 μL) were inoculated subcutaneously into the right flank of nude mice, and establishment of palpable tumours was determined. The tumour volume was calculated as v=L×l^2×p/6 where L and l represent the larger and the smaller tumour diameter measured twice week with digital caliper. When tumours reached an average volume of ˜100 mm^3 (on day 10), three experimental groups (three mice per group) were tested as follow: (a) untreated, (b) siXL1 naked (25 μg/kg), and (c) siXL1-PEI (25 μg/kg). The samples were diluted in 0.5 ml 0.9% NaCl solution (siRNA naked) or in 0.5 ml 5% glucose solution (siRNA-PEI) and injected intraperitoneally. This process was repeated once a week.
substance,measurement,value
"siXL1: double-stranded siRNA blocking Bcl-XL expression; sense 5′-auuggugagucggaucgcatt-3′ (SEQ ID NO: 5), anti-sense 5′-ugcgauccgacucaccaautt-3′ (SEQ ID NO: 6) (sense AUUGGUGAGUCGGAUCGCATT; antisense UGCGAUCCGACUCACCAAUTT; chemistry not given here)",effect on subcutaneous tumor growth,almost no effect
